The source of these data is patent publication US6291467A, “Heteroaromatic derivatives” (priority 2000, dated 2001).

A word on the IC50: it is the concentration that gives 50% inhibition.

Structures are written as SMILES. Structures can show the parent of a compound that is named as a salt. Some results are limits rather than exact numbers.

One data set addresses T1, human D4.2 receptor (Homo sapiens, UniProt P21917, DEL265-296).
T1 sequence (P21917 with tags, fused parts or gaps DEL265-296): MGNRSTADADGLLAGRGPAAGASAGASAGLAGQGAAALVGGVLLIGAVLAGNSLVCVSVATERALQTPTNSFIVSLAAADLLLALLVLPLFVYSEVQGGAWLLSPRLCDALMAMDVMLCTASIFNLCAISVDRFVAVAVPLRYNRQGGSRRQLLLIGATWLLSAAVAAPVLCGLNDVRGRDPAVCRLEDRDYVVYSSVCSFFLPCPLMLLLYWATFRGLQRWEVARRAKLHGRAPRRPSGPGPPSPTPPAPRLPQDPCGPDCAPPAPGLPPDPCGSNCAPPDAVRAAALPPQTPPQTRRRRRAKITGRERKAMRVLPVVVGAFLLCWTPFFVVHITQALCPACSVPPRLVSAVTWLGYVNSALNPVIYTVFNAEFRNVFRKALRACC
As to the kind of experiment: Dopamine D4 Receptor Binding Assay (displacement of [^3 H]spiperone). The conditions noted are these: human D4.2 in CHO cell membranes, pH 7.4, 27° C., 2 hours. As to the method: 1. Dopamine D4 Receptor Binding Assay
Chinese hamster ovarium (CHO) cell membranes wherein human D4.2 receptor was expressed were used as a receptor preparation.
[^3 H]spiperone was used as [^3 H]-labeled ligand.
A binding reaction using the [^3 H]-labeled ligand was carried out according to the following method as described in Eur. J. Pharmacol., 233, 173(1993).
Dopamine D4.2 Receptor Binding Assay: The CHO cell membranes wherein human D4.2 receptor was expressed, [^3 H]spiperone ([…]) and each test drug were reacted in 50 mM Tris-hydrochloric acid buffer (pH 7.4) containing 5 mM EDTA, 1.5 mM CaCl2, 5 mM KCl and 120 mM NaCl at 27° C. for 2 hours.
After completion of the reaction, the reaction solution was filtered by suction through a glass filter (GF/B), and the radioactivity on the filter was measured by a liquid scintillation spectrometer.
The binding under the reaction in the presence of 10 μM haloperidol was defined as non-specific binding of [^3 H]spiperone, and the difference between the total binding and the non-specific binding was defined as specific binding.

For the next data set, the target named is Dopamine D2 Receptor (Rattus norvegicus, UniProt P61169). As to the kind of experiment: Dopamine D2 Receptor Binding Assay (displacement of [^3 H]raclopride). The conditions noted are these: rat striatum membrane, [^3 H]raclopride (1 nM), 25° C., an hour. How it is done: 2. Dopamine D2 Receptor Binding Assay
Rat striatum membrane was used as a receptor preparation.
[^3 H]raclopride was used as [^3 H]-labeled ligand.
A binding reaction using the [^3 H]-labeled ligand was carried out according to the following method as described in Mol. J. Pharmacol., 43, 749(1993).
Preparation of Receptor Preparation: Rat striatum was homogenized in 50 mM Tris-hydrochloric acid buffer (pH 7.4), centrifuged at 48,000×g, and the precipitate was washed once with a Tris-hydrochloric acid buffer. The precipitate was suspended in 50 mM Tris-hydrochloric acid buffer (pH 7.4) containing 120 mM NaCl, 1.5 mM KCl, 2 mM CaCl2 and 1 mM MgCl2 to give a membrane preparation.
Dopamine D2 Receptor Binding Assay: The membrane preparation (0.5 mg of protein/ml), [^3 H]raclopride (1 nM) and each test drug were reacted at 25° C. for an hour.
After completion of the reaction, the reaction solution was filtered by suction through a glass filter (GF/B), and the radioactivity on the filter was determined by a liquid scintillation spectrometer.
The binding under the reaction in the presence of 10 μM haloperidol was defined as non-specific binding of [^3 H]raclopride, and the difference between total binding and non-specific binding was defined as specific binding.

For another data set, the system named is dopamine D4 receptors. The conditions noted are these: Nature, 350, 610-614 (1991); cited from earlier work.
Data set [1] relates to drug-resistant schizophrenia and negativism. To be noted: clinical investigation, Arch. Gen. Psych., 45, 789-796 (1988); cited from earlier work.
For data set [2] the following is noted: Summary and Clinical Data, Sandoz, Canada Inc. (1990); cited from earlier work.

Chain of Dopamine D2 Receptor (P61169 whole entry): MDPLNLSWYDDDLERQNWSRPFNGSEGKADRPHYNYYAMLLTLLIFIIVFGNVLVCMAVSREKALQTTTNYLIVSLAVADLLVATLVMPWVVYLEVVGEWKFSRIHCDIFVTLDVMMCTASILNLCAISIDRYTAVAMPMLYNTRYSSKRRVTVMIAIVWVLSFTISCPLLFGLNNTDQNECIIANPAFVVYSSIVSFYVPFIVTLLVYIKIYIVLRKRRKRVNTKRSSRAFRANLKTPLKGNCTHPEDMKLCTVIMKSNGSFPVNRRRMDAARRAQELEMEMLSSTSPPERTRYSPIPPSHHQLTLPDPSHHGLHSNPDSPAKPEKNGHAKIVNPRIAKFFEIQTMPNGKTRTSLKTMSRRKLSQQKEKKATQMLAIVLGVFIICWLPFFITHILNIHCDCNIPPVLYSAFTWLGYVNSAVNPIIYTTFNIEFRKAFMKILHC

With `Fc1ccc(-c2nc(S)ncc2CCN2CCC(=Cc3ccccc3F)CC2)cc1` [Compound A-13, 4-(4-fluorophenyl)-5-[2-[4-(2-fluorobenzylidene)piperidin-1-yl]ethyl]-2-mercaptopyrimidine], the figures for the IC50 on human D4.2 receptor and at Dopamine D2 Receptor were 1.35 nM and greater than 1000 nM, respectively.
For the molecule `Oc1nc(-c2ccc(F)cc2)c(CCN2CCC(=Cc3cccc(F)c3)CC2)s1` [Compound A-10, 2-hydroxy-4-(4-fluorophenyl)-5-[2-[4-(3-fluorobenzylidene)piperidin-1-yl]ethyl]thiazole], the 50% inhibitory concentration (IC50) on human D4.2 receptor was determined as 1.96 nM; on Dopamine D2 Receptor, 73.9 nM.
In the case of `CN1CCN(C2=Nc3cc(Cl)ccc3Nc3ccccc32)CC1` [clozapine], in the data set with dopamine D4 receptors, the “affinity for dopamine D4 receptors relative to dopamine D2 receptors” value is on record as “higher than that for dopamine D2 receptors”. In data set [1], the “effect on drug-resistant schizophrenia and negativism” value was “effective on drug-resistant schizophrenia and negativism”; the extrapyramidal diseases entry was “hardly causes extrapyramidal diseases”. Moreover, in data set [2], the “blood disorder (agranulocytosis)” value is recorded as “serious defect of causing blood disorder called agranulocytosis” and the death from agranulocytosis result is on record as “cases of death therefrom have been reported”.
In the case of `Fc1ccc(-c2[nH]ncc2CCN2CCC(=Cc3ccccc3F)CC2)cc1` [Compound A-03, 5-(4-fluorophenyl)-4-[2-[4-(2-fluorobenzylidene)piperidin-1-yl]ethyl]pyrazole oxalate], the values for the IC50 at human D4.2 receptor and at Dopamine D2 Receptor were 0.85 nM and 26.6 nM, respectively.
Turning to `Cc1ccc(C=C2CCN(CCc3cn[nH]c3-c3ccc(F)cc3)CC2)cc1` [Compound A-06], the IC50 was determined as 2.85 nM at human D4.2 receptor and 171 nM on Dopamine D2 Receptor.
Consider `Fc1ccc(-c2[nH]ncc2CCN2CCC(=Cc3cccc(F)c3)CC2)cc1` [Compound A-02], for which the IC50 on human D4.2 receptor was 1.12 nM; at Dopamine D2 Receptor, 32 nM.
For `Fc1ccc(C=C2CCN(CCc3cn[nH]c3-c3ccc(F)cc3)CC2)cc1` [Compound A-01] the same measures were 1.23 nM and 152 nM.
For `O=C(c1ccc(F)cc1)C1CCN(CCc2sc(O)nc2-c2ccc(F)cc2)CC1` [Compound A-09] the same measures were 2.85 nM and 107 nM.
For the molecule `Nc1ncc(CCN2CCC(=Cc3ccccc3F)CC2)c(-c2ccc(F)cc2)n1` [Compound A-16], the IC50 at human D4.2 receptor stood at 1.96 nM; on Dopamine D2 Receptor, 129 nM.
Regarding `CSc1nc(-c2ccc(F)cc2)c(CCN2CCC(=Cc3cccc(F)c3)CC2)[nH]1` [Compound A-08], the half-maximal inhibitory concentration (IC50) at human D4.2 receptor is 1.12 nM; at Dopamine D2 Receptor, 61.4 nM.
For `Cc1ccc(-c2[nH]ncc2CCN2CCC(=Cc3ccc(F)cc3)CC2)cc1` [Compound A-04] the same measures were 1.96 nM and 55.9 nM.
Turning to `Fc1ccc(-c2ncncc2CCN2CCC(=Cc3ccccc3F)CC2)cc1` [Compound A-12, 4-(4-fluorophenyl)-5-[2-[4-(2-fluorobenzylidene)piperidin-1-yl]ethyl]pyrimidine dihydrochloride], the half-inhibitory concentration (IC50) at human D4.2 receptor turned out to be 2.15 nM; on Dopamine D2 Receptor, 359 nM.
